Patent US8198274B2, “Substituted indolyl and indazolyl derivatives and uses thereof” (Roche Palo Alto LLC, priority 2008, dated 2012)
pKi: −log10 of the molar value.

Columns and labels:
[1] = target: T1, human norepinephrine transporter (hNET) (Homo sapiens, UniProt P23975); assay: Screening for compounds active at human norepinephrine transporter (hNET), scintillation proximity assay, competition with [3H]-Nisoxetine; format: binding; details: membranes of HEK-293 cells, SPA
T1 construct: expressed in transfected cells
Procedure: This assay was used to determine the affinity of ligands for the hNET transporter by competition with [^3H]-Nisoxetine. As in the hSERT assay of the above example, receptor-containing membranes were pre-coupled to the SPA beads and the binding of the appropriate radioligand to the transporter was measured. The light emission was proportional to the amount of bound radioligand, with unbound radioligand producing no signal.
HEK-293 cells (Tatsumi et al., Eur. J. Pharmacol. 1997, 30, 249-258) stably expressing recombinant hNET (Clone: HEK-hNET #2) were maintained with media (DMEM hi glucose with 10% FBS, 300 μg/ml G418 and 2 mM L-Glutamine) and incubated at 37° C. with 5% CO2. Cells were released from culture flasks using PBS for 1-2 minutes. […]
Cell membranes were prepared using a membrane preparation buffer of 50 mM TRIS (pH 7.4). […] After a second centrifugation, the pellet was re-homogenized and brought to a final volume determined during the assay. […]
^3[H] […] The mixtures were allowed to stand at room temperature for one hour, and were then counted on a Packard TopCount LCS, a generic SPA counting protocol settings (Energy Range: Low, Efficiency Mode: Normal, Region A: 1.50-35.00, Region B: 1.50-256.00, Count Time (min.): 0.40, Background Subtract: none, Half-Life Correction: no, Quench Indicator: tSIS, Platemap blank subtraction: No, Cross talk reduction: Off). […]

[2] = target: T2, human dopamine transporter (hDAT) (Homo sapiens, UniProt Q01959); assay: Screening for compounds active at human dopamine transporter (hDAT), scintillation proximity assay, competition with [3H]-Vanoxerine; format: binding; details: HEK-293 cells, SPA
T2 construct: expressed in transfected cells
Procedure: This assay was used to determine the affinity of ligands for the dopamine transporter by competition with [^3H]-Vanoxerine.
HEK-293 cells (Tatsumi et al., Eur. J. Pharmacol. 1997, 30, 249-258) stably expressing recombinant hDAT were maintained with media (DMEM hi glucose with 10% FBS, 300 μg/ml G418 and 2 mM L-Glutamine) and incubated at 37° C. with 5% CO2. Cells were plated four hours prior to experiment by placing approximately 30,000 cells per well (in PBS) on white, opaque Cell-Tak coated 96 well plates. Extra buffer was apriated from the cell plates using an ELx405 plate washer.
^3[H] vanoxerine (GBR 12909) radioligand, specific activity approximately 59 Ci/mmol, stock concentration, 400 nM, and 50 mM Tris-HCl, 300 mM NaCl, (pH 7.4) buffers were used for Scintillation Proximity Assay IC50/Ki determination. […]
The % inhibition was calculated for each compound tested [(Compound CPM at maximum concentration-Non-Specific CPM)/Total CPM*100]. […]
[formula] where max=total binding, min=non specific binding, x=concentration (M) of the tested compound and n=Hill slope. The inhibition dissociation constant (Ki) of each compound was determined according to the method of Cheng-Prusoff and then converted into negative logarithm (pKi) of the Ki.

T2 sequence (Q01959 whole entry): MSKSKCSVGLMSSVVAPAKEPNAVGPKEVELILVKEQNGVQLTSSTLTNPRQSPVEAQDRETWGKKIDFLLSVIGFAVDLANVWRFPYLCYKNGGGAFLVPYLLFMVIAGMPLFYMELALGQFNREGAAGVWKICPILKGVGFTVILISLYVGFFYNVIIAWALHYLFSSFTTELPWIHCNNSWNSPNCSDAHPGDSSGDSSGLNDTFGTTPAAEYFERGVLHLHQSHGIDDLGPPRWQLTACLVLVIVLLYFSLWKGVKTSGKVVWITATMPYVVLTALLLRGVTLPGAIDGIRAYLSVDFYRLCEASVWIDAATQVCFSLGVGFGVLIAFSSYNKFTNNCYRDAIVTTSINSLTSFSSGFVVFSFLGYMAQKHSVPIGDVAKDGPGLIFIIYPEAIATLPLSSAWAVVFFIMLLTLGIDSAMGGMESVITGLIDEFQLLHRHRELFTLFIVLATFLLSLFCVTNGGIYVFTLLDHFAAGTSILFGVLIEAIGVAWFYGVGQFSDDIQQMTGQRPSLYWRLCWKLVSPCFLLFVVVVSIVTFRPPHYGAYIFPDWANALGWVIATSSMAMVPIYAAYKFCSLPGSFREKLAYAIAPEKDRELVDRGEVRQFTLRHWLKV
T1 sequence (P23975 whole entry): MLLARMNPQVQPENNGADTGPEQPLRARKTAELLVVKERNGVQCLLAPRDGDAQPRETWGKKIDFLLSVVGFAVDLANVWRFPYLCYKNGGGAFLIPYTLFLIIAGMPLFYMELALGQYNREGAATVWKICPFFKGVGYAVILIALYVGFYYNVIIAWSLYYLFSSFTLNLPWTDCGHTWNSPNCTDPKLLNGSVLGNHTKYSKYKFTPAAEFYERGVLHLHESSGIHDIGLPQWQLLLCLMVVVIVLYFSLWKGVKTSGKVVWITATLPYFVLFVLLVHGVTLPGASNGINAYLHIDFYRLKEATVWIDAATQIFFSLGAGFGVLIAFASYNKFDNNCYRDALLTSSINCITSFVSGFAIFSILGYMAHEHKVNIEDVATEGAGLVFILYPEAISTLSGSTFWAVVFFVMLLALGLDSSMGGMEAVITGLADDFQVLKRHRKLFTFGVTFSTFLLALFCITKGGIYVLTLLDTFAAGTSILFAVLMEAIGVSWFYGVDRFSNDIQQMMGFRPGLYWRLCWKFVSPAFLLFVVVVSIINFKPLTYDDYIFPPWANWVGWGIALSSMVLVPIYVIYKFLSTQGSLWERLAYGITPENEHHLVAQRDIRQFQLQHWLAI

Q: With `CNCc1ccccc1Cc1ccc2[nH]c(C(N)=O)cc2c1` [Compound 40, 5-(2-Methylaminomethyl-benzyl)-1H-indole-2-carboxylic acid amide] as the molecule, how does the pKi [1] read?
A: ~8.40

Q: And the pKi [2]?
A: ~8.30
